# From article PMC4798879 (Nature chemical biology, 2016)
# Key:
# H2122 cells = assay: Compound stability in cell lines, H2122; type: in vitro ADME, human
# [1] = Body weight loss in xenograft experiments; type: in vivo, mouse; details: once daily dosing
# H2122 = assay: Compound concentration response, viability; type: cell-based, human; details: read-out: IC50 (concentration that resulted in 50% less viability); H2122 cells
# H2122 derived tumors = assay: Xenograft experiment, H2122 derived tumors in Nod-Scid mice; type: in vivo, mouse; details: 20 mg/kg once daily
# sebocytes = assay: In vivo toxicity study, sebocytes in skin of CD-1 mice; design: species or system mouse; details: 20 mg/kg once a day for two weeks
# [2] = Pharmacokinetic studies in CD-1 mice; type: in vivo, mouse; details: 6 and 20 mg/kg
# [3] = tested on: panel of 12 NSCLC cell lines; assay: Concentration-response toxicity across panel of NSCLC cell lines; type: cell-based, human
structure (smiles),measurement,setting,value
CCCCc1ccc(N=CNO)c(C)c1 [HET0016],effect on SW208108 metabolism,H2122 cells,inhibited both the loss of SW208108 and the generation of dMe-SW208108
same,effect on binding of SW208108 to SCD,"SCD (p37 and p30); H2122, 0.1 µM SW208108",inhibited the binding of SW208108 to SCD in a dose dependent fashion
same,effect on ability of dMe-SW208108 to bind SCD,"SCD (p37 and p30); H2122, 0.1 µM dMe-SW208108",no effect
O=C(NCCC1CC1)c1ccc(N2CCN(C(=O)c3cc(F)ccc3C(F)(F)F)CC2)nn1 [Xenon-45],Weight loss,[1],up to 7%
same,IC50,H2122,95 nM
same,growth of H2122 tumors,H2122 derived tumors,no efficacy
same,sebocytes in hair follicles of skin,sebocytes,devoid of sebocytes
same,pharmacokinetic properties,[2],favorable pharmacokinetic properties
COc1ccc(CCNC(=O)C(=O)Nc2ccc(Cl)cc2)cc1 [SW027951],toxicity in eight of the remaining ten cell lines,[3]; 6 μM,insensitive
same,toxicity in HCC44 and HCC95,[3]; HCC44 and HCC95 cell lines,intermediate toxicity
